Key:
Type in all cases: cell-based
[1] = system: human cholangiocyte-derived liver organoids (hCLOs); test: Liver fibrosis model with hCLO; settings: hCLO in LEM, 3 days
Experimental: Meanwhile, for disease modeling using human cholangiocyte-derived liver organoids (hCLOs) cultured in the LEM, TGF-β was tested at each concentration and the organoids were treated with the most appropriate concentration of TGF-β (80 ng/ml). Then, the possibility of inducing liver fibrosis was checked.
To verify a liver fibrosis model, SMA (Smooth Muscle Actin) was used for staining to determine the accumulated extracellular matrix (ECM) around the organoids. Through this experiment, it was verified that a human liver fibrosis model can be constructed using a liver organoid cultured in the LEM scaffold (FIG. 79B).

[2] = system: human lung organoid; test: Lung fibrosis model with human lung organoid
Experimental: Specifically, human lung organoids cultured in respective scaffolds were treated with TGF-β for 3 days and then analyzed.

[3] = system: mouse cholangiocyte-derived liver organoids (CLOs); test: Liver fibrosis model with mouse CLO
Experimental: For disease modeling using an LEM-based liver organoid, TGF-beta was screened at each concentration and the possibility of inducing liver fibrosis was checked. A model was induced using mouse cholangiocyte-derived liver organoids (CLOs) cultured for 7 days. To construct a liver fibrosis model, the organoids were treated with TGF-β at each concentration for 48 hours and observed.

[4] = system: mouse lung organoid; test: Lung fibrosis model with mouse lung organoid
Experimental: Specifically, lung organoids were treated for 3 days at respective concentrations on day 4 of culture and analyzed on day 7. A lung organoid that was not treated with TGF-β (NT, No treatment) was used as a control group.

TGF-β
liver organoid morphology and growth [1]: deformed in morphology and did not grow well | SMA, COL1 and VIM expression (immunostaining) ([2]; 3 days after treatment): increased | ACTA2, COL1A2 and TNF-α expression ([2]; 3 days, quantitative PCR): significantly increased | expression of liver fibrosis markers ([3]; 4 ng/ml TGF-β, qPCR): highest | liver organoid morphology and growth ([3]; TGF-β each concentration, 48 hours): changed in morphology and did not grow well | cholangiocyte marker expression ([3]; organoids cultured in LEM): significantly decreased | fibrosis marker expression ([3]; organoids cultured in LEM): greatly increased | SMA and Col1 expression (immunostaining) [4]: increase as the TGF-β treatment concentration increases | Col1a2 expression ([4]; 40 ng/ml): increased statistically significantly | lung organoid shape and growth ([4]; TGF-β each concentration, 3 days): changed in shape and did not grow well

Source: US12534704B2, “Organ extracellular matrix-derived scaffold for culture and transplantation of organoid and method of preparing the same” (CELLARTGEN INC., priority 2020, dated 2026)
